In the OPERA property sets (Mansouri et al. 2018):

logP | SMILES
0.81 | CNC(=O)c1ccsc1
1.83 | COC(=O)c1cccs1
3.03 | CCCOC(=O)c1ccsc1
2.32 | CCOC(=O)c1ccsc1
0.84 | CNC(=O)c1cccs1
2.55 | Clc1ccsc1
1.18 | CCNC(=O)c1ccsc1
3.01 | CCCOC(=O)c1cccs1
1.65 | CCCNC(=O)c1ccsc1
1.18 | CCNC(=O)c1cccs1
1.68 | CCCNC(=O)c1cccs1
2.13 | COc1cccs1
